Values joined by “and” are separate entries in the source; they are usually repeats but may differ in a detail not shown here. Equal values may be shown once. Read-outs that look alike come from different tables or passages of the source.
Legend:
CYPs 3A, 1A and 2C9 = tested on: CYPs 3A, 1A and 2C9; design: method as in Investigator Brochure; conditions: protocol background; ref Investigator Brochure; cited from earlier work
[1] = assay type: in vivo; conditions: trough plasma, individual patients
Method: Peripheral blood w ill be sent to Lab21 for anti-retroviral drug levels on Cycle 1 D ay 1 Pre-
treatment, Cycle 1 Day 15 and Cycle 4 D ay 22/Cycle 5 Day 1. […]
• 5mls of venous blood should be collected into a K2- ED TA BD vacutainer
• Samples should be inverted several times to ensure adequate mix ing. […]
• Samples should be stored at - 200C. […]
Ant i-retroviral drug lev els
• Samples to be collected Cycle 1 Day 1 Pre- treatment and Cycle 1 Day 15 and Cycle 4 Day […]
• 2x 1000 µl of plasma should be aliquoted to 1.5 ml plastic screw top tubes.
• Samples should be stored at - 200C (or below) for 24 hours befor e sending. […]
Therapeutic drug monitoring of the cART therapies was undertaken by Lab 21 Ltd (Cambridge, UK). Blood plasma was prepared from 5 ml of venous blood collected in K2-EDTA BD vacutainer tubes from kits provided by Covance. Samples were centrifuged at 2000 g for 20 minutes at room temperature, frozen at sites, packed in dry ice and sent to Lab 21 Ltd (Cambridge, UK) where they were stored at -20°C prior to analysis.

[2] = assay type: in vivo; conditions: trough plasma, Cycle 5 Day 15, individual patient
[3] = tested on: non-small cell lung cancer; design: method as in SCART protocol 7.3.1; conditions: selumetinib 75mg bd + docetaxol 75mg/m2 iv day 1 every 21 days (combination arm) or chemotherapy alone arm; ref SCART protocol 7.3.1; cited from earlier work
Kaposi's sarcoma = tested on: Kaposi's sarcoma; design: method as in Tulpule, et al. 2002; conditions: 100mg/m2 q 2 weeks, second-line; ref Tulpule, et al. 2002; cited from earlier work
[4] = Cycle 1 Day 1 (pre-selumetinib), selumetinib starting dose 75 mg bd
[5] = Cycle 1 Day 15, selumetinib starting dose 75 mg bd
[6] = Cycle 1 Day 1 (pre-selumetinib), selumetinib starting dose 50 mg bd
[7] = Cycle 1 Day 15, selumetinib starting dose 50 mg bd
[8] = Cycle 5 Day 1, selumetinib starting dose 50 mg bd
[9] = Cycle 5 Day 1, selumetinib starting dose 75 mg bd

Antiretroviral drug Concentration [1, 6]	Antiretroviral drug Concentration [1, 7]	Antiretroviral drug Concentration [1, 8]	Compound	Antiretroviral drug Concentration [1, 4]	Antiretroviral drug Concentration [1, 5]	also measured
			Cn1cnc2c(F)c(Nc3ccc(Br)cc3Cl)c(C(=O)NOCCO)cc21 [AZD6244]			induction of CYPs 3A, 1A and 2C9 (CYPs 3A, 1A and 2C9): weak
			Nc1nc(NC2CC2)c2ncn([C@H]3C=C[C@@H](CO)C3)c2n1 [Abacavir]	1060 ng/mL	246 ng/mL	
			COC(=O)N[C@H](C(=O)N[C@@H](Cc1ccccc1)[C@@H](O)CN(Cc1ccc(-c2ccccn2)cc1)NC(=O)[C@@H](NC(=O)OC)C(C)(C)C)C(C)(C)C [Atazanavir]	758 ng/mL	5797 ng/mL	
			Nc1ccn([C@@H]2CS[C@H](CO)O2)c(=O)n1 [Lamivudine]	817 ng/mL	512 ng/mL	
516 ng/mL and 94 ng/mL	462 ng/mL and 575 ng/mL and 246 ng/mL	328 ng/mL and 566 ng/mL	CC(C)c1nc(CN(C)C(=O)N[C@H](C(=O)N[C@@H](Cc2ccccc2)C[C@H](O)[C@H](Cc2ccccc2)NC(=O)OCc2cncs2)C(C)C)cs1 [Ritonavir]	364 ng/mL and 342 ng/mL	1585 ng/mL and 564 ng/mL	Antiretroviral drug Concentration [1, 9]: 431 ng/mL
133 ng/mL and 15 ng/mL and 90 ng/mL	51 ng/mL and 234 ng/mL and 43 ng/mL	55 ng/mL	C[C@H](Cn1cnc2c(N)ncnc21)OCP(=O)(O)O [Tenofovir]	84 ng/mL and 30 ng/mL and 60 ng/mL and 130 ng/mL and 90 ng/mL	123 ng/mL and 46 ng/mL and 239 ng/mL and 40 ng/mL	Antiretroviral drug Concentration [1, 9]: 135 ng/mL and 104 ng/mL; Antiretroviral drug Concentration ([2]; selumetinib starting dose 50 mg bd): 230 ng/mL; Antiretroviral drug Concentration ([2]; selumetinib starting dose 75 mg bd): 143 ng/mL
			CC(=O)O[C@@]12CO[C@@H]1C[C@H](O)[C@@]1(C)C(=O)[C@H](O)C3=C(C)[C@@H](OC(=O)[C@H](O)[C@@H](NC(=O)OC(C)(C)C)c4ccccc4)C[C@@](O)([C@@H](OC(=O)c4ccccc4)[C@H]21)C3(C)C [docetaxol]			febrile neutropenia, patients [3]: 0/42
			CC(=O)O[C@H]1C(=O)[C@@]2(C)[C@H]([C@H](OC(=O)c3ccccc3)[C@]3(O)C[C@H](OC(=O)[C@H](O)[C@@H](NC(=O)c4ccccc4)c4ccccc4)C(C)=C1C3(C)C)[C@]1(OC(C)=O)CO[C@@H]1C[C@@H]2O [paclitaxel]			median PFS (Kaposi's sarcoma): 39 weeks; response rate (Kaposi's sarcoma): 56%

Compound	Antiretroviral drug Concentration [1, 6]	Antiretroviral drug Concentration [1, 7]	Antiretroviral drug Concentration [1, 8]	Antiretroviral drug Concentration [1, 4]	Antiretroviral drug Concentration [1, 5]	also measured
O=C1Nc2ccc(Cl)cc2[C@@](C#CC2CC2)(C(F)(F)F)O1 [Efavirenz]	4545 ng/mL	4180 ng/mL	6257 ng/mL	3378 ng/mL	3139 ng/mL	

From paper PMC11921695 (BMC Cancer, 2025)
